We go through 2 compounds from article PMC11551917 (RSC Advances, 2024).

As usually defined, the IC50 is the point on the concentration scale where inhibition reaches its midpoint. Read a low IC50 as inhibition by little substance.

This experiment addresses Jack-bean urease (Canavalia ensiformis, UniProt P07374). In words: indophenol ammonia assay, […] nm. The class given is biochemical.

Chain of Jack-bean urease (P07374 whole entry, looked up): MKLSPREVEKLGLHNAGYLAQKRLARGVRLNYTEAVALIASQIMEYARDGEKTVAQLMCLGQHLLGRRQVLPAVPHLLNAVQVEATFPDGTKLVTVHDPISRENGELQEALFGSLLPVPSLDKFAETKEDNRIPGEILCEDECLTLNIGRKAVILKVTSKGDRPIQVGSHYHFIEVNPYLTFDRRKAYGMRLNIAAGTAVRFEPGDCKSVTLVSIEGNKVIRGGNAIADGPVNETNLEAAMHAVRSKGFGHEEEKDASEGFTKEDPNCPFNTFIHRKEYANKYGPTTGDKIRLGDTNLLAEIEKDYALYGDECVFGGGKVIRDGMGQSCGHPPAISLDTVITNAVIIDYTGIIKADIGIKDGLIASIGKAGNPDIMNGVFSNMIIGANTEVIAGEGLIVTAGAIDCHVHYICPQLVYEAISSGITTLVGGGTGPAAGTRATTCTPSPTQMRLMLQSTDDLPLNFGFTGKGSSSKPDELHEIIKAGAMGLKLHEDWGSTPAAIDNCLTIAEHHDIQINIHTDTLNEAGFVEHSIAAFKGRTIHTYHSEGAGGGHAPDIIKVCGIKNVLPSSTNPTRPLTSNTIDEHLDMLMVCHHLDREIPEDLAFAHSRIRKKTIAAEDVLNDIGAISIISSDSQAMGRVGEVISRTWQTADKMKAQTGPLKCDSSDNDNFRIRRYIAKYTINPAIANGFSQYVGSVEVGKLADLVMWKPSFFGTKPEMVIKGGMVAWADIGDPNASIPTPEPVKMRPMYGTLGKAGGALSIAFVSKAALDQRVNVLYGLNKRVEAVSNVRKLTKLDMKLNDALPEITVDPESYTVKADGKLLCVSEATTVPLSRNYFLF

On to `Nc1cccc(C(=O)O)c1` [3-ABA], for which the IC50 was found to be 31.4 ± 0.48 µM. Next, `NC(N)=S` [Thiourea]: 24.5 ± 0.47 µM.
